Test results from EP0550007A2, “Eseroline derivatives having anticholinesterase activity, a process for their preparation and pharmaceutical compositions containing them” (priority 1991, dated 1993).

Columns and labels:
[1] = antagonist effect on the stimulating effect of scopolamine (motor activity), ESE series; assay type: in vivo; conditions: scopolamine at the dose of 1 mg/kg
Method: This is countered by the oral administration of 2.5 mg of ESE001, ESE002, ESE003, ESE004.

[2] = antagonist activity against the stimulating effect of an anticholinergic substance (scopolamine); assay type: in vivo, mice SWISS; conditions: scopolamine subcutaneously injected, 1mg/kg, mice
Method: As the central anticholinergic stimulating agent the scopolamine was used subcutaneously injected to groups of 10 mice SWISS ([…]) at the dose of 1mg/kg.
At this dose the substance under question caused in all the animals a marked increase (80-100%) of the spontaneous motility, evaluated according to the above described method .

[3] = system: acetylcholinesterase activity (AchE); experiment: in vivo anticholinesterase activity (blood and brain, Ellman colorimetric method); set-up: species or system Wistar male rats; conditions: rats, oral, 1.5 to 4 mg/kg; sacrificed after 20, 60 and 120 minutes
acetylcholinesterase activity (AchE), sequence (P37136 32-574 limits assumed): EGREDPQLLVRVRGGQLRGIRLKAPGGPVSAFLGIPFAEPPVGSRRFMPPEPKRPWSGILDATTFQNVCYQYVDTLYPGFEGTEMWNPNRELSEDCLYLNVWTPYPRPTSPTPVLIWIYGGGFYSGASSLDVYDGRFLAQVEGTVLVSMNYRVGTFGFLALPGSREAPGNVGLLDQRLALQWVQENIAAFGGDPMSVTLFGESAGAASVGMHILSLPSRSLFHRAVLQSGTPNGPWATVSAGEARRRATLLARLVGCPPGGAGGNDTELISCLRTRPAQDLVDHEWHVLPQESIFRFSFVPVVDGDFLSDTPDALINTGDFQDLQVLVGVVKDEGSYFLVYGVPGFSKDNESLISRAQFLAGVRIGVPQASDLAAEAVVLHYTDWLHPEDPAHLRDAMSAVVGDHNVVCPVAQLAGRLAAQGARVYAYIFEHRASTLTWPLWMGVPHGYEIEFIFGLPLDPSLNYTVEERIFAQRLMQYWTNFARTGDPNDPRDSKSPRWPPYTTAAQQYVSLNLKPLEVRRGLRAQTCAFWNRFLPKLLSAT
Method: The derivatives, under question and physostigmine suspended in 2% carboxymethylcellulose, were orally administered to groups of Wistar male rats (average weight about 250 g).
On the base of the obtained results in preliminary trials, the doses utilized for the comparison were comprised beween 0.2 and 0.4 mg/kg for physostigmine and between 1.5 and 4 mg/kg for the eseroline derivatives under question.
The groups of treated rats were sacrificed after 20, 60, and 120 minutes and the blood and the brain of each animal were immediately cooled to 0°C and maintained at this temperature during the successive treatments.
The acetylcholinesterase activity (AchE) was determined by using the Ellman et al's quick colorimetric method (Biochem. Pharmacol., 7, 88, 1961) and it was expressed as enzymatic inhibition percentage.

mouse [4] = experiment: spontaneous motility (Dews' method modified according to Carminati); assay type: in vivo, mouse (SWISS strain)
Text: The Dews' method was utilized, as modified according to Carminati (Arch. Int. Pharmacodyn. et Thér. 181, 68,1969).

[5] = effect on the succinylcholine curarization duration (corneal reflex); assay type: in vivo; conditions: i.v. administration of 0.6 mg/kg, rabbit; compared with physostigmine
mouse [6] = experiment: acute toxicity, oral LD50 in the mouse; conditions: oral, suspension in 2% carboxymethylcellulose, observation period 7 days
Text: The mouse was used (Swiss strain having the average weight of the male mice being 26 g and 22 g that of the female mice: 5+5 animals per dose, observation period: 7days) The oral LD50 (suspension in 2% carboxymethylcellulose) were reported hereinbelow: Tab.2

| Molecule | increase in motor activity (stimulating effect) [1] | increase of the spontaneous motility [2] | inhibitory activity of the acetylcholinesterase [3] | reduction of spontaneous motility (mouse [4]; oral, starting from minimal doses of 3.5-5 mg/kg, on average) | minimal doses causing a marked reduction of spontaneous motility (mouse [4]; orally administered) | anticholinesterase effect with respect to the succinylcholine curarizing action [5] | LD50 in the mouse (mouse [6]) |
| --- | --- | --- | --- | --- | --- | --- | --- |
| CN1[C@@H]2C[C@@H](OC(=O)[C@H](CO)c3ccccc3)C[C@H]1[C@@H]1O[C@@H]12 [scopolamine, reference compound] | 100% | 80-100% | – | – | – | – | – |
| eseroline L-prolylpyrrolidinamide [MGT2] | – | – | evident dose dipendent and reversible inhibitory activity | ~-39% | 3.5 to 5 mg/kg | the same anticholinesterase effect | 342,2 ± 11,16 mg/kg |
